According to patent US20240190883A1, “KRAS PROTEIN DEGRADERS, PHARMACEUTICAL COMPOSITIONS THEREOF, AND THEIR THERAPEUTIC APPLICATIONS” (BioTheryX, Inc., priority 2021, published 2024):

Legend:
Type in all cases: cell-based
[1] = test system: Lovo (G13D) cells; assay: Cell viability assay (CELLTITER-GLO), Lovo cells; conditions: Homo sapiens, 72 h, 3 days incubation, 2.5% fetal bovine serum, read-out: Inhibition of Cancerous Cells IC50 (μM) Lovo (G13D)
Experimental: (§1) H358, H23, SW48, and AsPC-1 cells were cultured in RPMI 1640 media supplemented with 10% fetal bovine serum, streptomycin, and penicillin. Lovo and SW480 cells were cultured in DMEM media supplemented with 10% fetal bovine serum, streptomycin, and penicillin. The cell lines were plated in their respective medium supplemented with 2.5% fetal bovine serum, streptomycin, and penicillin. All cell lines were plated in white walled 96-well plates at 2,000 cells/well or 384-well plates at 500 cells/well, except Lovo, which were plated at 4,000 or 1,000 cells/well, respectively. The cells were incubated in DMSO (control) or a compound for 3 days at 37° C. under 5% C02. A CELLTITER-GLO® reagent (100 μL) was then added to each well. After a 10 min incubation with shaking, luminescence was measured using an ENVISION® multimode plate reader. IC50 values are summarized in Table 1 and percentages of inhibition are summarized in Table 2, where compound T1 is 2-(4-(2-methyl-3,5-diphenylpyrazolo[1,5-a]pyrimidin-7-yl)piperazin-1-yl)ethan-1-ol.

[2] = test system: SW480 (G12V) cells; assay: Cell viability assay (CELLTITER-GLO), SW480 cells; conditions: Homo sapiens, 72 h, 3 days incubation, 2.5% fetal bovine serum, read-out: Inhibition of Cancerous Cells IC50 (μM) SW480 (G12V)
Experimental: as §1

[3] = test system: SW48 (wt) cells; assay: Cell viability assay (CELLTITER-GLO), SW48 cells; conditions: Homo sapiens, 72 h, 3 days incubation, 2.5% fetal bovine serum, read-out: Inhibition of Cancerous Cells IC50 (μM) SW48 (wt)
Experimental: as §1

[4] = test system: H358 (G12C) cells; assay: Cell viability assay (CELLTITER-GLO), H358 cells; conditions: Homo sapiens, NCI-H358, 72 h, 3 days incubation, 2.5% fetal bovine serum, read-out: Inhibition of Cancerous Cells IC50 (μM) H358 (G12C)
Experimental: as §1

[5] = test system: AsPC-1 (G12D) cells; assay: Cell viability assay (CELLTITER-GLO), AsPC-1 cells; conditions: Homo sapiens, ASPC1, 72 h, 3 days incubation, 2.5% fetal bovine serum, read-out: Inhibition of Cancerous Cells IC50 (μM) AsPC-1 (G12D)
Experimental: as §1

Row | Structure (SMILES) | IC50 [1] | IC50 [2] | IC50 [3] | IC50 [4] | IC50 [5]
1 | Cc1nn2c(N3CCN(CCO)CC3)cc(-c3cccc(CCCN4CCN(C(=O)CNc5ccc(C6CCC(=O)NC6=O)cc5)CC4)c3)nc2c1-c1ccccc1 (stereo not shown) [Compound B1, 3-(4-((2-(4-(3-(3-(7-(4-(2-Hydroxyethyl)piperazin-1-yl)-2-methyl-3-phenyl-pyrazolo[1,5-a]pyrimidin-5-yl)phenyl)propyl)piperazin-1-yl)-2-oxoethyl)amino)phenyl)-piperidine-2,6-dione] | 0.74 µM | 1.2 µM | 1.1 µM | 0.94 µM | 
2 | Cc1nn2c(N3CCN(CCO)CC3)cc(-c3cccc(CCCCCN4CCN(C(=O)CNc5ccc(C6CCC(=O)NC6=O)cc5)CC4)c3)nc2c1-c1ccccc1 (stereo not shown) [Compound B2, 3-(4-((2-(4-(5-(3-(7-(4-(2-hydroxyethyl)piperazin-1-yl)-2-methyl-3-phenylpyrazolo[1,5-a]pyrimidin-5-yl)phenyl)pentyl)piperazin-1-yl)-2-oxoethyl)amino)phenyl)piperidine-2,6-dione] | 0.4 µM | 0.39 µM | 0.49 µM | 0.71 µM | 
3 | Cc1nn2c(N3CCN(CCO)CC3)cc(-c3cccc(CCCN4CCN(C(=O)CNc5cccc(C6CCC(=O)NC6=O)c5)CC4)c3)nc2c1-c1ccccc1 (stereo not shown) [Compound B4, 3-(3-((2-(4-(3-(3-(7-(4-(2-Hydroxyethyl)piperazin-1-yl)-2-methyl-3-phenyl-pyrazolo[1,5-a]pyrimidin-5-yl)phenyl)propyl)piperazin-1-yl)-2-oxoethyl)amino)phenyl)-piperidine-2,6-dione] | 1.1 µM | 1.3 µM | 1.4 µM | 1.1 µM | 
4 | Cc1nn2c(N3CCN(CCO)CC3)cc(-c3ccccc3)nc2c1-c1cccc(CCCCCN2CCN(C(=O)COc3ccc(N4CCC(=O)NC4=O)cc3)CC2)c1 [Compound C7, 1-(4-(2-(4-(5-(3-(7-(4-(2-hydroxyethyl)piperazin-1-yl)-2-methyl-5-phenyl-pyrazolo[1,5-a]pyrimidin-3-yl)phenyl)pentyl)piperazin-1-yl)-2-oxoethoxy)phenyl)dihydro-pyrimidine-2,4(1H,3H)-dione] | 0.73 µM | 0.45 µM | 0.7 µM | 1.1 µM | 0.91 µM
5 | Cc1nn2c(N3CCN(CCO)CC3)cc(-c3ccccc3)nc2c1-c1cccc(CCCCCCCN2CCN(C(=O)COc3ccc(N4CCC(=O)NC4=O)cc3)CC2)c1 [Compound C8, 1-(4-(2-(4-(7-(3-(7-(4-(2-Hydroxyethyl)piperazin-1-yl)-2-methyl-5-phenyl-pyrazolo[1,5-a]pyrimidin-3-yl)phenyl)heptyl)piperazin-1-yl)-2-oxoethoxy)phenyl)dihydro-pyrimidine-2,4(1H,3H)-dione] | 0.71 µM | 0.42 µM | 0.66 µM | 1.1 µM | 1.1 µM
6 | Cc1nn2c(N3CCN(CCO)CC3)cc(-c3ccccc3)nc2c1-c1cccc(CCCCCCCCCN2CCN(C(=O)COc3ccc(N4CCC(=O)NC4=O)cc3)CC2)c1 [Compound C9, 1-(4-(2-(4-(9-(3-(7-(4-(2-hydroxyethyl)piperazin-1-yl)-2-methyl-5-phenyl-pyrazolo[1,5-a]pyrimidin-3-yl)phenyl)nonyl)piperazin-1-yl)-2-oxoethoxy)phenyl)dihydro-pyrimidine-2,4(1H,3H)-dione] | 0.47 µM | 0.42 µM | 0.48 µM | 1.1 µM | 0.96 µM
7 | Cc1nn2c(N3CCN(CCO)CC3)cc(-c3ccccc3)nc2c1-c1cccc(CCCCCCCN2CCN(C(=O)COc3cccc(N4CCC(=O)NC4=O)c3)CC2)c1 [Compound C11, 1-(3-(2-(4-(7-(3-(7-(4-(2-Hydroxyethyl)piperazin-1-yl)-2-methyl-5-phenyl-pyrazolo[1,5-a]pyrindin-3-yl)phenyl)heptyl)piperazin-1-yl)-2-oxoethoxy)phenyl)dihydro-pyrimidine-2,4(1H,3H)-dione] | 0.89 µM | 0.53 µM | 1.1 µM | 1.2 µM | 1.2 µM
8 | Cc1nn2c(N3CCN(CCO)CC3)cc(-c3ccccc3)nc2c1-c1cccc(CCCCCCCCCN2CCN(C(=O)COc3cccc(N4CCC(=O)NC4=O)c3)CC2)c1 [Compound C12, 1-(3-(2-(4-(9-(3-(7-(4-(2-hydroxyethyl)piperazin-1-yl)-2-methyl-5-phenyl-pyrazolo[1,5-a]pyrimidin-3-yl)phenyl)nonyl)piperazin-1-yl)-2-oxoethoxy)phenyl)dihydro-pyrimidine-2,4(1H,3H)-dione] | 0.63 µM | 0.45 µM | 0.73 µM | 1.4 µM | 1 µM
9 | Cc1nn2c(N3CCN(CCO)CC3)cc(-c3cccc(CCCCCN4CCN(C(=O)CNc5ccc6c(C7CCC(=O)NC7=O)nn(C)c6c5)CC4)c3)nc2c1-c1ccccc1 (stereo not shown) [Compound D2, 3-(6-((2-(4-(5-(3-(7-(4-(2-hydroxyethyl)piperazin-1-yl)-2-methyl-3-phenylpyrazolo[1,5-a]pyrimidin-5-yl)phenyl)pentyl)piperazin-1-yl)-2-oxoethyl)amino)-1-methyl-1H-indazol-3-yl)piperidine-2,6-dione] | 0.32 µM | 0.45 µM | 0.52 µM | 0.82 µM | 
10 | Cc1nn2c(N3CCN(CCO)CC3)cc(-c3cccc(CCCN4CCN(C(=O)CNc5cccc6c(C7CCC(=O)NC7=O)nn(C)c56)CC4)c3)nc2c1-c1ccccc1 (stereo not shown) [Compound D4, 3-(7-((2-(4-(3-(3-(7-(4-(2-Hydroxyethyl)piperazin-1-yl)-2-methyl-3-phenyl-pyrazolo[1,5-a]pyrimidin-5-yl)phenyl)propyl)piperazin-1-yl)-2-oxoethyl)amino)-1-methyl-1H-indazol-3-yl)piperidine-2,6-dione] | 0.52 µM | 0.84 µM | 0.94 µM | 0.75 µM | 
11 | Cc1nn2c(N3CCN(CCO)CC3)cc(-c3ccccc3)nc2c1-c1cccc(CCCN2CCN(C(=O)CNc3ccc4c(C5CCC(=O)NC5=O)nn(C)c4c3)CC2)c1 (stereo not shown) [Compound D7, 3-(6-((2-(4-(3-(3-(7-(4-(2-Hydroxyethyl)piperazin-1-yl)-2-methyl-5-phenyl-pyrazolo[1,5-a]pyrimidin-3-yl)phenyl)propyl)piperazin-1-yl)-2-oxoethyl)amino)-1-methyl-1H-indazol-3-yl)piperidine-2,6-dione] | 1.3 µM | 0.86 µM | 1.2 µM | 3.3 µM | 1.3 µM
12 | Cc1nn2c(N3CCN(CCO)CC3)cc(-c3ccccc3)nc2c1-c1cccc(CCCCCN2CCN(C(=O)CNc3ccc4c(C5CCC(=O)NC5=O)nn(C)c4c3)CC2)c1 (stereo not shown) [Compound D8, 3-(6-((2-(4-(5-(3-(7-(4-(2-Hydroxyethyl)piperazin-1-yl)-2-methyl-5-phenyl-pyrazolo[1,5-a]pyrimidin-3-yl)phenyl)pentyl)piperazin-1-yl)-2-oxoethyl)amino)-1-methyl-1H-indazol-3-yl)piperidine-2,6-dione] | 0.63 µM | 0.4 µM | 0.72 µM | 1.2 µM | 1.3 µM
13 | Cc1nn2c(N3CCN(CCO)CC3)cc(-c3ccccc3)nc2c1-c1cccc(CCCCCCCN2CCN(C(=O)CNc3ccc4c(C5CCC(=O)NC5=O)nn(C)c4c3)CC2)c1 (stereo not shown) [Compound D9, 3-(6-((2-(4-(7-(3-(7-(4-(2-Hydroxyethyl)piperazin-1-yl)-2-methyl-5-phenyl-pyrazolo[1,5-a]pyrimidin-3-yl)phenyl)heptyl)piperazin-1-yl)-2-oxoethyl)amino)-1-methyl-1H-indazol-3-yl)piperidine-2,6-dione] | 0.51 µM | 0.46 µM | 0.72 µM | 1 µM | 1.3 µM
14 | Cc1nn2c(N3CCN(CCO)CC3)cc(-c3ccccc3)nc2c1-c1cccc(CCCN2CCN(C(=O)CNc3cccc4c(C5CCC(=O)NC5=O)nn(C)c34)CC2)c1 (stereo not shown) [Compound D10, 3-(7-((2-(4-(3-(3-(7-(4-(2-Hydroxyethyl)piperazin-1-yl)-2-methyl-5-phenyl-pyrazolo[1,5-a]pyrimidin-3-yl)phenyl)propyl)piperazin-1-yl)-2-oxoethyl)amino)-1-methyl-1H-indazol-3-yl)piperidine-2,6-dione] | 0.87 µM | 0.63 µM | 1.3 µM | 2.4 µM | 1.4 µM
15 | Cc1nn2c(N3CCN(CCO)CC3)cc(-c3ccccc3)nc2c1-c1cccc(CCCCCN2CCN(C(=O)CNc3cccc4c(C5CCC(=O)NC5=O)nn(C)c34)CC2)c1 (stereo not shown) [Compound D11, 3-(7-((2-(4-(5-(3-(7-(4-(2-Hydroxyethyl)piperazin-1-yl)-2-methyl-5-phenyl-pyrazolo[1,5-a]pyrimidin-3-yl)phenyl)pentyl)piperazin-1-yl)-2-oxoethyl)amino)-1-methyl-1H-indazol-3-yl)piperidine-2,6-dione] | 0.73 µM | 0.48 µM | 0.84 µM | 1.2 µM | 1.4 µM
